# Values of other authors in patent US3931141A, “Novel heptapeptides having gastrin activity” (Hoechst Aktiengesellschaft, priority 1972, dated 1976).
# Tested on: stomach
# Conditions: The Lancet 1966, page 933
substance,measurement,value
Boc--β--Ala--Trp--Met--Asp--Phe--NH2 [formula IV],stimulating action (acid production and quantity secreted) compared with other synthetic peptides,strongest stimulating action
